Measurements as given in patent US12053736B2, “Process for regenerating a liquid absorbent” (COMMONWEALTH SCIENTIFIC AND INDUSTRIAL RESEARCH ORGANISATION, priority 2019, dated 2024).
Where two headings read alike, the source gives them in different places.

Experiments:
[1] = Accelerated oxidative degradation of benzylamine (CO2/O2, 55° C., 13C-NMR); assay type: physicochemical; conditions: 1 mol/L, CO2 (1 bar) and O2 (9 bar), 10 days, relative 13C-NMR peak areas
Experimental: A solution of 10 mL of 1 mol/L BZA was placed in a Fischer-Porter vessel. […] Based on relative peak areas approximately 41% of the BZA had been converted to imine.

[2] = conjugate acid pKa, cited from earlier work
[3] = Extraction of imine dimer into organic solvents (liquid-liquid partition, GC-MS, 13C NMR); assay type: physicochemical
Experimental: A sample of the aqueous absorbent, which had initially contained 3 mol/L 3-AMPy and 3 mol/L 2-amino-2-methyl-1-propanol (AMP), was taken after 3800 hours (c.a. 158 days) of operation in the pilot plant campaign described in Example 2. Despite the improved stability of the solution as a result of the AMP, it is evident from FIG. 3 that imine dimer degradation product was present in significant quantities (c.a. 0.2 mol/litre) by this time.
Equal volumes of the sample and dichloromethane were vigorously shaken in a separating funnel and allowed to undergo phase separation. The two phases were then collected and separately analysed by GC-MS. FIGS. 4 and 5 depict gas chromatographs of the organic and aqueous phases respectively, with the peaks identified by mass spectrometry via comparison against libraries of reference spectra.
Samples of the same aqueous absorbent were also extracted with equal volumes of toluene or ethyl acetate. The organic phases after extraction with dichloromethane, toluene and ethyl acetate were analysed by ^13C NMR.

[4] = Extraction of imine dimer by solid absorption on Amberlite XAD-2; assay type: physicochemical; conditions: Amberlite XAD-2, stirred 2 hours, 13C NMR
Experimental: A sample of the aqueous absorbent, which had initially contained 3 mol/L 3-AMPy and 3 mol/L 2-amino-2-methyl-1-propanol (AMP), was taken after 5000 hours (c.a. 208 days) of operation in the pilot plant campaign described in Example 2. Despite the improved stability of the solution as a result of the AMP, imine dimer degradation product was present in significant quantities (c.a. 0.35 mol/litre) by this time.
Amberlite XAD-2, a hydrophobic crosslinked polystyrene copolymer resin, was washed 3 times in deionized water followed by washing 3 times in dichloromethane (DCM). The cleaned beads were mixed with the absorbent sample that had been exposed to 5000 hours of flue gas. The mixture was stirred for 2 hours to allow the hydrophobic components to adhere to the polymer resin. The mixture was filtered to remove the water soluble portion of the degraded amine absorbent. The beads were washed with water and this water added to the filtrate. The beads were then washed with 3 portions of DCM, and the collected DCM was partially evaporated.
Very little amine was extracted into the beads and carried over to the DCM wash, as evidenced by the lack of peaks near 42 ppm (these peaks are present in the sample and aqueous filtrate spectra). […]

[5] = Viscosity of absorbent (Anton Parr LOVIS 2000 ME, 40° C.); assay type: physicochemical; conditions: imine added to fresh absorbent
Experimental: Another sample of the aqueous absorbent, which had initially contained 3 mol/L 3-AMPy and 3 mol/L 2-amino-2-methyl-1-propanol (AMP) and was taken after c.a. 5000 hours (c.a. 208 days) of operation in the pilot plant campaign described in Example 2, was extracted with dichloromethane as described in Example 5. As a result of the extraction, the viscosity of the sample was reduced from 9.9 mPa·s to 6.0 mPa·s (measured at 40° C. using an Anton Parr LOVIS 2000 ME instrument). By comparison, the viscosity of the fresh, CO2 free absorbent was 4.7 mPa·s. The effect of the viscosity reduction is to improve the performance of the absorbent in the plant through better flow properties and reduced mass transfer resistance.
The synthesised imine (structure confirmed by IR spectroscopy) was added to fresh absorbent and the impact on viscosity measured (measured at 40° C. using an Anton Parr LOVIS 2000 ME).

[6] = Hydrolysis of imine dimer under acidic aqueous conditions; assay type: physicochemical; conditions: acetic acid and water with DCM solution, room temperature, 24 hours
Description: The imine of Formula (II) is found to be unstable in acidic aqueous conditions. For the case where the degradation product is extracted from the liquid absorbent into an organic solvent, hydrolysis may thus be achieved by contacting the separated organic phase with an acidified aqueous phase, for example containing a catalytic amount of acetic acid. After suitable mixing and time for hydrolysis, the two phases are separated by conventional liquid-liquid separation techniques, with the regenerated amine of Formula (I) partitioned into the aqueous phase and the less polar aldehyde of Formula (III) remaining in the organic phase. The aqueous phase, now containing a first portion of regenerated amine of Formula (I), may then be recycled to the gas absorption process. It will be appreciated that a theoretical maximum of 50 mol % of the degraded amine may be recovered by this process step, since each molecule of imine incorporates two amine molecules.
A sample of the aqueous absorbent, which had initially contained 3 mol/L 3-AMPy and 3 mol/L 2-amino-2-methyl-1-propanol (AMP) and was taken after c.a. 3800 hours (c.a. 158 days) of operation in the pilot plant campaign described in Example 2. The sample was shaken with an equal volume of dichloromethane (DCM) in a separating funnel for 1 minute. The phases were then allowed to separate and each phase was collected separately. […]

[7] = Accelerated oxidative degradation of diethanolamine solutions with sacrificial amine (CO2/O2, 55° C., 13C-NMR); conditions: 5.9 mol/L DEA and 0.1 mol/L additive, CO2 (1 bar), O2 (9 bar), 115 hours
Experimental: The effect of 3-aminomethylpyridine (3-AMPy) and benzylamine (BZA) on the degradation of DEA was investigated using accelerated degradation conditions designed to simulate longer-term degradation in a gas capture process. DEA solutions were thus prepared as follows: i) 6 mol/L DEA; ii) 5.9 mol/L DEA and 0.1 mol/L BZA; and iii) 5.9 mol/L DEA and 0.1 mol/L 3-AMPy. Each solution (10 ml) was placed in a Fischer-Porter vessel. The vessels were sealed and the remaining headspace of the vessels was filled with CO2 (1 bar) and O2 (9 bar). The liquid phase in the vessels was stirred via magnetic stirring bars and heated to 55° C. by immersion in a water bath for 115 hours.
Samples were then taken and analysed by ^13C-NMR spectroscopy (Bruker Avance 400).

## NCc1ccccc1 [BZA, benzylamine]
[1]
  amine converted to imine: approximately 41%

## CC(N)CO (stereo not drawn) [2-amino-1-propanol]
[2]; table in description
  pKa at 25° C.: 9.5
[2]; table of Example 4
  pKa at 25° C.: 9.5

## OCC1CCNCC1 [4-piperidinylmethanol]
[2]; table of Example 4
  pKa at 25° C.: 10.6

## NCCS(=O)(=O)[O-].[K+] [potassium taurate]
[2]; table in description
  pKa at 25° C.: 9.1
[2]; table of Example 4
  pKa at 25° C.: 9.1

## C(=NCc1cccnc1)c1cccnc1 [imine dimer]
[3]; dichloromethane, toluene or ethyl acetate, equal volumes, 13C NMR
  extraction into organic phase: successful and selective extraction
[3]; equal volumes of used absorbent sample and dichloromethane, GC-MS
  phase distribution after extraction: almost exclusively present in the organic phase
[4]
  extraction by hydrophobic resin beads: majority of the imine was extracted
[5]
  impact on viscosity of fresh absorbent: increased with the concentration of synthetic imine added
[6]
  stability under acidic aqueous conditions: unstable

## NCc1cccnc1 [3-(aminomethyl)pyridine]
[7]
  DEA degradation (13C-NMR peak at 67 ppm) in presence of sacrificial amine: this degradation has not occurred

## NCC(=O)[O-].[Na+] [sodium glycinate]
[2]; table in description
  pKa at 25° C.: 9.6
[2]; table of Example 4
  pKa at 25° C.: 9.6

## OCC1CCCCN1 (stereo not drawn) [2-piperidinylmethanol]
[2]; table of Example 4
  pKa at 25° C.: 10.1
